Results: publication PMC3225327 (Journal of Biomedical Science, 2011)

Assays:
[1] = test system: ovalbumin-induced airway hyperresponsiveness; assay: Airway hyperresponsiveness, FlexiVent (RL, Cdyn) in OVA-sensitized and challenged mice; assay type: in vivo, BABL/c mice
Description: According to the schedule (Figure 1), ten female BABL/c mice in each group were sensitized by an intraperitoneal (i.p.) injection of 20 μg of OVA emulsified in 2.25 mg of an aluminum hydroxide gel, prepared from aluminum sulfate hexadecahydrate, in a total volume of 100 μl on days 0 and 14. On day 21, these mice were injected with (i.p.) 100 μl of a mixture of 1% OVA and Freund's complete adjuvant (1:1). Mice were challenged via the airway using 1% OVA in saline for 30 min on days 28, 29, and 30 by ultrasonic nebulization. After the last of OVA challenges, AHR was assessed on day 32 (48 h after 1% OVA provocation) in each group. […] For comparison, sham-treated mice were challenged with saline instead of 1% OVA (non-challenged). […] AHR was assessed using two methods: (1) in anesthetized ventilated mice, AHR was assessed as previously described by measuring changes in the airway resistance (RL, cmH2O/ml/sec) and lung dynamic compliance (Cdyn, ml/cmH2O) after challenge with aerosolized methacholine (MCh, 0.78~25 mg/ml) using the FlexiVent system (SCIREQ, Montreal, Quebec, Canada). Anesthetized (urethane 600 mg/kg and chloralose 120 mg/kg, i.p.), tracheostomized (stainless-steel cannula, 18 G) mice were mechanically ventilated (at 150 breaths/min, with a tidal volume of 10 ml/kg, positive end-expiratory pressure of 3 cmH2O). (2) in unrestrained animals by barometric plethysmography using a whole-body plethysmograph (WBP) and analyzed using software of Life Science Suite P3 Analysis Modules (Gould, LDS Test and Measurement LLC, Valley View, OH, USA). Mice were placed into the main chamber of the WBP, and the baseline enhanced pause (Penh) value was determined.

[2] = test system: total IgG2a, total and OVA-specific IgE; assay: IgE and IgG2a levels in serum and BALF of sensitized and challenged mice (ELISA); assay type: in vivo, BABL/c mice; conditions: 3~30 μmol/kg p.o.
Description: According to the schedule (Figure 1), ten female BABL/c mice in each group were sensitized by an intraperitoneal (i.p.) injection of 20 μg of OVA emulsified in 2.25 mg of an aluminum hydroxide gel, prepared from aluminum sulfate hexadecahydrate, in a total volume of 100 μl on days 0 and 14. On day 21, these mice were injected with (i.p.) 100 μl of a mixture of 1% OVA and Freund's complete adjuvant (1:1). Mice were challenged via the airway using 1% OVA in saline for 30 min on days 28, 29, and 30 by ultrasonic nebulization. After the last of OVA challenges, AHR was assessed on day 32 (48 h after 1% OVA provocation) in each group. Each group of mice was orally (p.o.) administered the vehicle (control) or 3~30 μmol/kg of HDME 2 h before and 6 and 24 h after OVA provocation. For comparison, sham-treated mice were challenged with saline instead of 1% OVA (non-challenged). […] AHR was assessed using two methods: (1) in anesthetized ventilated mice, AHR was assessed as previously described by measuring changes in the airway resistance (RL, cmH2O/ml/sec) and lung dynamic compliance (Cdyn, ml/cmH2O) after challenge with aerosolized methacholine (MCh, 0.78~25 mg/ml) using the FlexiVent system (SCIREQ, Montreal, Quebec, Canada). Anesthetized (urethane 600 mg/kg and chloralose 120 mg/kg, i.p.), tracheostomized (stainless-steel cannula, 18 G) mice were mechanically ventilated (at 150 breaths/min, with a tidal volume of 10 ml/kg, positive end-expiratory pressure of 3 cmH2O). (2) in unrestrained animals by barometric plethysmography using a whole-body plethysmograph (WBP) and analyzed using software of Life Science Suite P3 Analysis Modules (Gould, LDS Test and Measurement LLC, Valley View, OH, USA). Mice were placed into the main chamber of the WBP, and the baseline enhanced pause (Penh) value was determined. Then mice were first nebulized with phosphate-buffered saline (PBS), and subsequently with increasing doses (6.25~50 mg/ml) of MCh for 3 min for each nebulization, followed by readings of breathing parameters for 3 min after each nebulization to determine Penh values.
Twenty-four hours after Penh determination, these mice were anesthetized with pentobarbital (50 mg/kg, i.p.), and the lungs were lavaged via a tracheal tube with PBS (1 × 1.0 ml, 37°C). After lavage, blood was collected from the jugular vein and allowed to sit so that it would coagulate. The collected bronchoalveolar lavage fluid (BALF) and coagulated blood were respectively centrifuged at 630 g for 7 min and at 3700 g for 10 min at 4°C. After centrifugation, the BALF and serum supernatants were stored at -20°C until determination of cytokines, including interleukin (IL)-2, IL-4, IL-5, tumor necrosis factor (TNF)-α, and interferon (IFN)-γ by flow cytometric methods using mouse T helper (Th)1/Th2 cytokine CBA kits, and of total immunoglobulin (Ig)E or IgG2a using ELISA kits (Pharmingen, San Diego, CA, USA) according to the respective recommendations of the manufacturers. OVA-specific IgE was measured as described previously. Wells were coated with 100 μl of OVA (20 μg/ml) instead of the capture antibody. Levels are expressed in arbitrary units, where 1 arbitrary unit equals the optical density of the sample divided by the optical density of unchallenged mouse serum or BALF (standard). […] The number of inflammatory cells was counted using a hemocytometer (Hausser Scientific, Horsham, PA, USA). […]

[3] = test system: duration of xylazine/ketamine-induced anesthesia; assay: Xylazine/ketamine-induced anesthesia; conditions: 10~100 μmol/kg s.c., 1 h before anesthesia
Description: After loss of the righting reflex (i.e., when a mouse remained on its back and no longer spontaneously righted itself to a prone position), the duration of anesthesia was measured until its return as the endpoint.

[4] = 3~30 μmol/kg p.o., MCh 6.25~25 mg/ml

COc1cc(O)c2c(c1)O[C@H](c1ccc(OC)c(OC)c1)CC2=O [HDME, hesperetin-7,3'-O-dimethylether]
RL value at the baseline ([1]; 3 μmol/kg p.o.): 1.06 ± 0.05 cmH2O/ml/s
RL value of PBS nebulization ([1]; 3 μmol/kg p.o.): 1.10 ± 0.07 cmH2O/ml/s
RL value at the baseline ([1]; 10 μmol/kg p.o.): 1.08 ± 0.06 cmH2O/ml/s
RL value of PBS nebulization ([1]; 10 μmol/kg p.o.): 1.06 ± 0.04 cmH2O/ml/s
RL value at the baseline ([1]; 30 μmol/kg p.o.): 1.09 ± 0.07 cmH2O/ml/s
RL value of PBS nebulization ([1]; 30 μmol/kg p.o.): 1.07 ± 0.06 cmH2O/ml/s
effect on MCh-induced decrease of lung dynamic compliance (Cdyn) [1, 4]: significantly suppressed
effect on MCh-induced increase of airway resistance (RL) [1, 4]: significantly suppressed
effect on OVA-specific IgE level in the BALF [2]: dose-dependently and significantly suppressed
effect on OVA-specific IgE level in the serum [2]: dose-dependently and significantly suppressed
effect on total IgE level in the BALF [2]: dose-dependently and significantly suppressed
effect on total IgE level in the serum [2]: dose-dependently and significantly suppressed
effect on total IgG2a level in the serum [2]: dose-dependently and significantly enhanced
effect on duration of xylazine/ketamine-induced anesthesia [3]: did not significantly influnce
